Like-named read-outs stand apart in the source and are kept apart here.
Legend:
[1] = target: T1, truncated human 11β-HSD-1 enzyme (24-287AA) (Homo sapiens, UniProt P28845); test: Human 11β-HSD-1 enzymatic SPA assay; format: biochemical; conditions: human enzyme, SPA
T1 construct: truncated human 11β-HSD-1 enzyme (24-287AA); made in house; host or cells: E. coli (lysate)
Experimental: The ability of test compounds to inhibit human 11β-HSD-1 enzymatic activity in vitro was evaluated in a Scintillation Proximity Assay (SPA). […] The reaction was stopped by adding a non-specific 11β-HSD inhibitor, 18β-glycyrrhetinic acid. The tritiated cortisol was captured by a mixture of an anti-cortisol monoclonal antibody and SPA beads coated with anti-mouse antibodies. The reaction plate was shaken at room temperature and the radioactivity bound to SPA beads was then measured on a β-scintillation counter. The 11β-HSD-1 assay was carried out in 96-well microtiter plates in a total volume of 220 μl. […] In order to drive the reaction in the forward direction, 1 mM G-6-P was also added. Solid compound was dissolved in DMSO to make a 10 mM stock followed by a subsequent 10-fold dilution with 3% DMSO in Tris/EDTA buffer (pH 7.4). 22 μl of titrated compounds was then added in triplicate to the substrate. Reactions were initiated by the addition of 10 μl of 0.1 mg/ml E. coli lysates overexpressing 11β-HSD-1 enzyme. After shaking and incubating plates for 30 minutes at room temperature, reactions were stopped by adding 10 μl of 1 mM glycyrrhetinic acid. The product, tritiated cortisol, was captured by adding 10 μl of 1 μM monoclonal anti-cortisol antibodies and 100 μl SPA beads coated with anti-mouse antibodies. After shaking for 30 minutes, plates were read on a liquid scintillation counter Topcount. Percent inhibition was calculated based on the background and the maximal signal. Wells that contained substrate without compound or enzyme were used as the background, while the wells that contained substrate and enzyme without any compound were considered as maximal signal. Percent of inhibition of each compound was calculated relative to the maximal signal and IC50 curves were generated. This assay was applied to 11β-HSD-2 as well, whereby tritiated cortisol and NAD^+ were used as substrate and cofactor, respectively.

11βHSD-1 = 11βHSD-1 (Homo sapiens, UniProt P28845); conditions: cited from earlier work
Chain of 11βHSD-1 (P28845 whole entry, species assumed): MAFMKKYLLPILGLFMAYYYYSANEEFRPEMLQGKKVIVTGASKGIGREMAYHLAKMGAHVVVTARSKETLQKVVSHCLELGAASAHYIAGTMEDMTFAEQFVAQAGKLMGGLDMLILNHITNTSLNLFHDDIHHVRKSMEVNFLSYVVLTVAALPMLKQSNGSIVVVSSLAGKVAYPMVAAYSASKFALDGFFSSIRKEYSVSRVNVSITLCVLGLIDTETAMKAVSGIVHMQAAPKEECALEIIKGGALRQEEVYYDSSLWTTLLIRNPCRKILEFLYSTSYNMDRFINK

[2] = Table 1, Barf et al., Drugs of the Future 31(3), 231-243 (2006), read-out: IC50
[3] = Table 3, Boyle et al., Expert Opin. Ther. Patents 19(6), 801-825 (2009), read-out: IC50
[4] = Table 4, Webster et al., Expert Opin. Ther. Patents 17(12), 1407-1422 (2007), read-out: Ki
[5] = Table 4, Webster et al., Expert Opin. Ther. Patents 17(12), 1407-1422 (2007), read-out: IC50
[6] = Table 5, Boyle, Current Opinion in Drug Discovery & Development 2008, 11(4), 495-511, read-out: IC50

T1 sequence (P28845 24-287): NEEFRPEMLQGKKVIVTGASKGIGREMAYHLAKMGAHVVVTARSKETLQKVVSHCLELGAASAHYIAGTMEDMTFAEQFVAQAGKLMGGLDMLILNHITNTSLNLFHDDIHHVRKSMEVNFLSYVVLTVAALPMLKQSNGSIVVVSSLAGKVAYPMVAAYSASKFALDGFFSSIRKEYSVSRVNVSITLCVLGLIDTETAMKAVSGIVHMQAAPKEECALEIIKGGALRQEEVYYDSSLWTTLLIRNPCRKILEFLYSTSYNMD

## C[S+]([O-])[C@]12C[C@@H]3C[C@H](C1)[C@@H](NC(=O)C(C)(C)Oc1ccc(F)cc1Cl)[C@@H](C3)C2 (stereo partly shown) [2-(2-chloro-4-fluorophenoxy)-2-methyl-N-[(E)-5-(methylsulfinyl)-2-adamantyl]propanamide]
[1]
  IC50: 28 nM

## CC1(C)C(=O)N(C2C3CC4CC2CC(C(N)=O)(C4)C3)CC1COc1ccc(-n2ccnc2)cc1 (stereo not shown) [(E)-4-(4-{[4-(1H-imidazol-1-yl)phenoxy]methyl}-3,3-dimethyl-2-oxopyrrolidin-1-yl)adamantane-1-carboxamide]
[1]
  IC50: 76 nM

## O=C(O)C12CC3CC(C1)C(NC(=O)C1(c4ccccc4)CC1)C(C3)C2 (stereo not shown) [(E)-4-[(1-phenyl-cyclopropanecarbonyl)-amino]-adamantane-1-carboxylic acid]
[1]
  IC50: 102 nM

## C[C@H](CCC(=O)O)[C@H]1CC[C@H]2[C@@H]3[C@H](O)C[C@@H]4C[C@H](O)CC[C@]4(C)[C@H]3CC[C@]12C [Example 490]
11βHSD-1
  IC50: 2800 nM

## O=C1CC(c2ccccc2)Oc2ccccc21 (stereo not shown) [Example 497]
11βHSD-1; [2]
  IC50: 18000 nM

## Cc1c(Cl)cccc1S(=O)(=O)Nc1nc(CC(=O)N2CCN(C)CC2)cs1 [Example 500]
11βHSD-1
  IC50: 96 nM

## CCCC(=O)Cc1csc(NS(=O)(=O)c2cccc(Cl)c2C)n1 [Example 502]
11βHSD-1; [2]
  IC50: 14 nM

## CC(C)c1nsc(NS(=O)(=O)c2ccc(Oc3ccccc3)cc2)n1 [Example 503]
11βHSD-1; [2]
  IC50: 219 nM

## Cc1c(Cl)cccc1S(=O)(=O)Nc1ccc2c(c1)nc(C)n2C [Example 505]
11βHSD-1; Table 1, @ 10 μM
  % @ 10 μM: 110% @ 10

## COc1cc(-c2nnc(C34CC5CC(CC(C5)C3)C4)n2C)cc(OC)c1OC [Example 507]
11βHSD-1; [2]
  IC50: < 10 nM

## CC(C)(C(=O)NC1C2CC3CC(C2)CC1C3)c1ccc(F)cc1 (stereo not shown) [Example 512]
11βHSD-1; [2]
  IC50: < 1000 nM

## O=C(c1ccc(-c2ccccc2[N+](=O)[O-])o1)N1CC[C@@H]2CCCC[C@@H]2C1 [Example 514]
11βHSD-1; [2]
  IC50: 7.7 nM

## O=C(CS(=O)(=O)N1CCCC1)c1ccc(F)cc1 [Example 519]
11βHSD-1; [2]
  IC50: 94 nM

## O=C(Cc1ccc(Cl)cc1)c1ccc(Br)cc1 [Example 520]
11βHSD-1; [2]
  IC50: 77 nM

## CC(=O)Nc1ccc(OCC(=O)c2ccc(Cl)cc2)cc1 [Example 521]
11βHSD-1; [2]
  IC50: 153 nM

## O=C(c1ccc(OC(F)(F)F)cc1)C1CCN(C(=O)c2ccc(F)cc2)CC1 [Example 523]
11βHSD-1; [2]
  IC50: 50 nM

## CC(C)[C@@H]1CC[C@@H](C)C[C@@H]1O [Example 524]
11βHSD-1; read-out: IC50
  IC50: 35000 nM

## C[C@H](NC1=NC(=O)C(C)(C(F)(F)F)S1)c1ccccc1F (stereo partly shown) [Example 527]
11βHSD-1
  IC50: 33 nM

## CC(CC(F)(F)F)c1nnc(C23CCC(c4nnc(-c5ccccc5C(F)(F)F)n4C)(CC2)CC3)o1 (stereo not shown) [Example 531]
11βHSD-1; [3]
  IC50: 9 to 100 nM

## CCOc1cc(NC(C)=O)ccc1-c1nnc(N(C)c2ccc(F)cc2)n1C [Example 532]
11βHSD-1; [3]
  IC50: 3.4 nM

## CC1(C2CC2)Cc2nnc(-c3ccccc3Cl)n2CCS1 (stereo not shown) [Example 534]
11βHSD-1; Table 3, @ 39 nM
  % @ 39 nM: 71.8% @ 39

## N#Cc1ccccc1CSc1nc(O)c(Cl)c2ccc(Cl)cc12 [Example 537]
11βHSD-1; [3]
  IC50: 2 nM

## CCSc1nc(N2CCOC(C(=O)O)C2)ccc1C(=O)NC1C2CC3CC(C2)CC1C3 (stereo not shown) [Example 547]
11βHSD-1; [3]
  IC50: 6 nM

## O=C(NC1C2CC3CC(C2)CC1C3)[C@H]1CCCN1S(=O)(=O)c1ccc(Cl)cc1 (stereo partly shown) [Example 548]
11βHSD-1; [3]
  IC50: < 0.03 nM

## O=C(NC1C2CC3CC1CC(O)(C3)C2)c1ccc(Oc2ccc(Cl)cn2)cc1 (stereo not shown) [Example 551]
11βHSD-1; [3]
  IC50: ~70 nM

## Cc1cc(Cl)ccc1OCCCC(=O)N(C)C1C2CC3CC(C2)C(CO)C1C3 (stereo not shown) [Example 555]
11βHSD-1; [3]
  IC50: 1 nM

## CC1(C2CC2)CN(C2C3CC4CC2CC(O)(C4)C3)C(=O)N1C1CC1 (stereo not shown) [Example 557]
11βHSD-1; [3]
  IC50: 3 nM

## CN1C(=O)N(C2C3CC4CC(C3)CC2C4)C[C@@H]1C(C)(C)C (stereo partly shown) [Example 558]
11βHSD-1; [3]
  IC50: < 50 nM

## C[C@@H](c1ccc(Cl)cc1)N1CCN([C@H]2C3CC4CC2C[C@](O)(C4)C3)C1=O [Example 559]
11βHSD-1; [3]
  IC50: 12 nM

## CC1(C)NC2(CCN(C(=O)NC3C4CC5CC(C4)CC3C5)CC2)c2c(Cl)cccc21 (stereo not shown) [Example 560]
11βHSD-1; [3]
  IC50: < 50 nM

## O=C(c1ccc(-c2cc(Cl)c(C[C@@H]3CCN(C4CCCCC4)C3=O)c(Cl)c2)cc1)N1CCN(CCF)CC1 [Example 564]
11βHSD-1; [3]
  IC50: 115 nM

## O=C1[C@H](Cc2c(Cl)cc(-c3ccc(F)cc3)cc2Cl)CCN1C1CCc2n[nH]cc2C1 (stereo partly shown) [Example 570]
11βHSD-1; [3]
  IC50: 276 nM

## O=C(c1ccc(-c2cc(Cl)c(CN3CCC(C4CCCCC4)C3=O)c(Cl)c2)cc1)N1CCN(CCF)CC1 (stereo not shown) [Example 572]
11βHSD-1; [3]
  IC50: 15.4 nM

## C[C@@H](c1ccc2ccccc2c1)N1CCN(Cc2ccccc2)C1=O [Example 575]
11βHSD-1; [3]
  IC50: 2.9 nM

## O=C(c1cnn(C2CCNCC2)c1C1CC1)N1CC[C@@H](c2ccccc2C(F)(F)F)C1 [Example 578]
11βHSD-1; [3]
  IC50: < 30 nM

## CC(=O)N1CCC2(CC(C3(c4ccc(Cl)cc4)CC3)=NO2)C1 (stereo not shown) [Example 579]
11βHSD-1; [3]
  IC50: < 5000 nM

## O=C1OC2(CCN(C(=O)C(O)c3ccc(Br)cc3F)C2)c2ccccc21 (stereo not shown) [Example 580]
11βHSD-1; [3]
  IC50: < 1000 nM

## O=C1OC2(CCN(C(=O)Nc3ccc(Cl)cc3F)C2)c2ccccc21 (stereo not shown) [Example 581]
11βHSD-1; [3]
  IC50: < 20000 nM

## O=C(N1CCC(c2cn[nH]c2)CC1)N1CCOc2ccc(Cl)cc21 [Example 583]
11βHSD-1; [3]
  IC50: 39 nM

## Cc1ccc(C(=O)N(C2CC2)[C@H]2CC[C@H](CCO)CC2)c(F)c1 [Example 594]
11βHSD-1; [3]
  IC50: 2 nM

## C[C@@H]1CN(c2ccc(C(N)(C(F)(F)F)C(F)(F)F)cc2)CCN1S(=O)(=O)c1ccc(C(C)(O)C(F)(F)F)cc1 (stereo partly shown) [Example 596]
11βHSD-1; [3]
  IC50: < 10 nM

## Cc1ccc(S(=O)(=O)N2CCCN(c3c(Cl)cncc3Cl)CC2)cc1 [Example 597]
11βHSD-1; [3]
  IC50: 910 nM

## O=S(=O)(Cc1ccc(C(F)(F)F)cc1)N1CCN(c2ncccc2C(F)(F)F)CC1 [Example 598]
11βHSD-1; [3]
  IC50: 430 nM

## Cc1c(Cl)cccc1S(=O)(=O)N1CCC[C@H](C(=O)NC2CCCCC2)C1 [Example 600]
11βHSD-1; read-out: IC50
  IC50: 3 nM

## O=C(N[C@H]1CCCN(S(=O)(=O)c2ccc(F)c3ccccc23)C1)N1C2CCC1CC(O)C2 (stereo partly shown) [Example 601]
11βHSD-1; read-out: IC50
  IC50: 3 nM

## N#Cc1ccc(C2CCN(S(=O)(=O)Nc3cccc(N)n3)CC2)cc1 [Example 671]
11βHSD-1; read-out: Ki
  Ki: < 1 nM

## Cc1cc(N)nc(NS(=O)(=O)c2sc(-c3ccc(C#N)cc3)nc2C)c1 [Example 672]
11βHSD-1; [4]
  Ki: 2.8 nM

## CC(O)c1cccc(NS(=O)(=O)c2ccc(-c3ccc(C#N)cc3)cc2)n1 (stereo not shown) [Example 673]
11βHSD-1; [4]
  Ki: 1.8 nM

## Cc1cc(C)nc(NS(=O)(=O)N2CCN(c3ccc(C#N)cn3)CC2)c1 [Example 674]
11βHSD-1
  Ki: 0.66 nM

## O=S(=O)(Nc1ccnc(C2CC2)n1)c1ccc2ccccc2c1 [Example 680]
11βHSD-1; [5]
  IC50: 20 nM

## Cc1c(S(=O)(=O)Nc2nc(C34CC5CC(CC(C5)C3)C4)cs2)sc2ccc(Cl)cc12 [Example 681]
11βHSD-1; [5]
  IC50: 18 nM

## O=S(=O)(Nc1nc(C23CC4CC(CC(C4)C2)C3)cs1)c1cc2ccccc2s1 [Example 682]
11βHSD-1; [5]
  IC50: 42 nM

## CC1(C)CC2CC(C)(CN2C(=O)c2cc(Cl)c(N)c(Cl)c2)C1 (stereo not shown) [Example 693]
11βHSD-1; [6]
  IC50: 4 nM

## CC1(C)CC2CC(C)(CN2C(=O)c2ccc(C(C)(C)O)cc2)C1 (stereo not shown) [Example 696]
11βHSD-1; [6]
  IC50: 7 nM

## COc1cc(C(=O)N2CCC(n3c(=O)[nH]c4ccccc43)CC2)ccc1C [Example 698]
11βHSD-1; [6]
  IC50: 110 nM

## O=C(c1cnoc1-c1ccc(F)cc1)N1CCC(c2ccccc2)C1 (stereo not shown) [Example 700]
11βHSD-1; Table 5, Boyle, Current Opinion in Drug Discovery & Development 2008, 11(4), 495-511
  IC50: 8 − 10,000 nM

## O=C(N[C@H]1CCCN(S(=O)(=O)c2ccc(F)c3ccccc23)C1)N1CCC(O)CC1 [Example 703]
11βHSD-1; [6]
  IC50: 13 nM

## O=S(=O)(Cc1ccc(C(F)(F)F)cc1)N1CCN(c2ncccc2C(F)(F)F)CC1 [Example 707]
11βHSD-1; [6]
  IC50: 430 nM

## COc1ccc(S(=O)(=O)NCC(=O)c2ccc(C(C)(C)C)cc2)cc1 [Example 713]
11βHSD-1; [6]
  IC50: 82 nM

## C[C@](O)(c1ccc(C(=O)N(C2CCC(c3cccnc3)CC2)C2CC2)cc1)C(F)(F)F (stereo partly shown) [Example 714]
11βHSD-1
  IC50: 1.4 nM

## CC(C)(Oc1ccc(Cl)cc1)C(=O)N[C@@H]1[C@@H]2C[C@@H]3C[C@H]1C[C@@](CS(N)(=O)=O)(C3)C2 [N-{(E)-5-[(aminosulfonyl)methyl]-2-adamantyl}-2-(4-chlorophenoxy)-2-methyl propanamide]
[1]
  IC50: 96 nM

Reference: patent publication US8871208B2, “11-β-hydroxysteroid dehydrogenase type 1 (11β-HSD1) inhibitors and uses thereof” (AbbVie Inc., priority 2009, dated 2014)
